Data on seven molecules can be found in patent US11370847B2, “Single domain antibodies directed against intracellular antigens” (Singh Biotechnology, LLC, priority 2014, dated 2022).

One assay relates to STAT3. The experiment in a line: STAT3 reporter GloResponse SIE-luc2P/HEK293 assay, IL-6 induction.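 As to all read-outs here: SIE-luc2P/HEK293 reporter cells stimulated with IL-6 at 40 ng/mL (EC80) after pretreatment, luciferase luminescence (RLU) read the following day, triplicate wells.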 The following applies: for effect on IL-6 induction of the STAT3 reporter: 24 and 48 hours treatment, VHH13 and VHH69 at highest concentration, VHH14 at both concentrations. Type of assay: cell-based.
The next assay has as its system PANC-1 cells. Description: MTT proliferation assay, PANC-1. The note with it: for Abs: 72 hours. (Tetrazolium dyes change colour on reduction, which living cells bring about.)
For the next assay, the system named is SJSA-1 cells. Description: MTT proliferation assay, SJSA-1. Type of assay: cell-based, human. The note with it: SJSA-1; 72 hours; 50 μg/ml.
For the next assay, the system named is MDA-MB-231 cells. Description: MTT proliferation assay, MDA-MB-231.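 As to all read-outs here: proliferation of cultured human cancer cells read by MTT, with treated groups compared against a vehicle control group.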 The following applies: for Mean: mean absorbance. Type of assay: cell-based, human.
For the next assay, the target named is T1, TNF-α (Homo sapiens, UniProt P01375).
T1 construct: purchased Sigma-Aldrich
The experiment in a line: Inhibition of TNF-α cytotoxicity against U937 by anti-TNF-α VHHs. Type of assay: cell-based. The following applies: constant dose of TNF-α at EC50. As for the experimental part:
The concentration of TNF-α required to show measurable modulation of activity in the U937 human […] cell line was evaluated by quantitation of the ATP present, which signals the presence of metabolically active cells using Promega's Cell Titer-Glo® Luminescent Cell Viability assay.
The U937 cells were seeded in a clear polystyrene 96-well microculture plate (Corning® Costar® 96-well flat bottom plate, Cat. #3997) in a total volume of 90 μL/well. After 24 hours of incubation in a humidified incubator at 37° C. with 5% CO2 and 95% air, 5 μL of 20×, serially diluted TNF-α in growth medium was added to each well in duplicate (10 pt dose response, highest concentration 20 ng/mL). Additionally, 5 μL of 20×, diluted staurosporine in growth medium was added to each well in duplicate (concentration 1 nM).
After 24 hours of culture in the presence of test agents, the concentration of compound required to show measurable modulation of TNF-α activity in the U937 cell line as evaluated by quantitation of the ATP present. Percent cell growth was calculated relative to untreated control wells. All tests were performed in duplicate at each concentration level.
The EC50 value for the test agents was estimated using Prism 6.05 by curve-fitting the data using the following four parameter-logistic equation: […]

In assay [1] the target is T2, active human TNF-α full length protein (Homo sapiens, UniProt P01375).
T2 construct: active human TNF-α full length protein; purchased Abcam
The experiment in a line: TNF-α binding ELISA. The procedure:
In this Example, the binding of anti-TNF-α sdAbs to active human TNF-α full length protein was assessed using an enzyme linked immunosorbent assay (ELISA) format. Additionally, the feasibility of utilizing a secondary antibody targeted to the his tag portion of the sdAbs was assessed.
The test articles for this study were anti-TNF-α VHH62 (SEQ ID NO:47) sdAb, TNF-α VHH66 (SEQ ID NO:45) sdAb, and anti-TNF-α VHH69 (SEQ ID NO:46) sdAb (Experiment 1).
For the assays to assess the binding of the sdAbs to TNF-α protein (Experiment 1, 4 and 5), a standard sandwich ELISA format was utilized. […] Plates were incubated overnight at 2-8° C. After the incubation, plates were washed (3×) and blocked (3% Bovine Serum Albumin (BSA) in Phosphate Buffered Saline (PBS)) for at least one hour at room temperature.
After removal of the blocking buffer and washing (3×), samples were added to the appropriate wells of the ELISA plates and incubated at room temperature with shaking (150 rpm) for at least one hour. The secondary antibody (rabbit anti-llama biotinylated antibody at either a1:5,000 or 10,000 dilution) was then added to each well and incubated with shaking for at least one hour at room temperature.
After the incubation with secondary antibody, the plates were again washed (3×) and horseradish peroxidase (HRP) at either a 1:25,000 or 1:50,000 dilution was added to each well. Plates were incubated with shaking for at least one hour at room temperature. A final wash (3×) was performed followed by the addition of TMB (Tetramethylbenzidine) substrate. After a 20 to 25 minute incubation at room temperature, stop solution was added to halt the colorimetric reaction. The absorbance at 450 nm was measured on a VersaMax instrument utilizing SoftMax Pro GxP version 5.4 software from Molecular Devices (Sunnyvale, Calif.).
The final experiment performed was to confirm that the results from the ELISA testing were due to binding to the TNF-α protein and not non-specific binding of the sdAb. For this determination, a comparison was made between wells coated with 0.5 μg/mL of coating antigen and non-coated wells. […] This experiment confirms that the detection seen with the previous experiments was due to the specific binding of the VHH to the coating antigen and not due to non-specific binding.
(In general: An ELISA detects its analyte on a solid surface through an enzyme-linked reagent.)

Assay [2] concerns rabbit anti-llama biotinylated antibody or his-probe (H-3) biotin labeled antibody. The experiment in a line: ELISA of secondary antibody binding to coated sdAbs. The note with it: Experiment 3, sdAb coated at 1 μg/mL, stored 1:100 dilution. The procedure:
Two assays (Experiment 2 and 3) were performed to assess the binding of the secondary antibody to the sdAbs. A similar ELISA method was utilized except the sdAbs were directly coated onto the assay plate at a concentration of 1 μg/mL. Plates were incubated overnight at 2-8° C. After the incubation, plates were washed (3×) and blocked (3% BSA in PBS) for at least one hour at room temperature.
After removal of the blocking buffer and washing (3×), the secondary antibodies, either rabbit anti-llama biotinylated antibody or his-probe (H-3) biotin labeled antibody at was then added at a 1:5,000 dilution to each well and incubated with shaking for at least one hour at room temperature. Only the rabbit anti-llama biotinylated antibody was used in Experiment 2. Both antibodies were run in parallel in Experiment 3.
After the incubation with secondary antibody, the plates were again washed (3×) and HRP at a 1:50,000 dilution was added to each well. Plates were incubated with shaking for at least one hour at room temperature. One last wash (3×) was performed followed by the addition of TMB substrate and plates were incubated at room temperature. For the anti-llama biotinylated antibody stop solution was added to halt the colorimetric reaction at 10 minutes. The his-probe (H-3) biotin labeled antibody was allowed to incubate for 20 minutes prior to stopping. The absorbance at 450 nm was measured as before.

Setting [3] is: 24 Hour Treatment Prior to IL6 Induction, higher conc.: VHH13 55.8 μg/mL, VHH14 84.3 μg/mL, BB1608 4.16 μM, VHH69 50.5 μg/mL.
Setting [4] is: 24 Hour Treatment Prior to IL6 Induction, lower conc.: VHH13, VHH14, VHH69 10 μg/mL, BB1608 2 μM.
Setting [5] is: 48 Hour Treatment Prior to IL6 Induction, higher conc.: VHH13 55.8 μg/mL, VHH14 84.3 μg/mL, BB1608 4.16 μM, VHH69 50.5 μg/mL.
Setting [6] is: 48 Hour Treatment Prior to IL6 Induction, lower conc.: VHH13, VHH14, VHH69 10 μg/mL, BB1608 2 μM.
The mark [7] stands for this setting: Homo sapiens, PANC-1, 72 h, read-out: % Inhibition, Growth Inhibition of PANC-1 Cells.

Values joined by “and” are separate entries in the source; they are usually repeats but may differ in a detail not shown here. Equal entries are not always repeated. Where two headings read alike, the source gives them in different places.

T2 sequence (P01375 77-233 limits assumed): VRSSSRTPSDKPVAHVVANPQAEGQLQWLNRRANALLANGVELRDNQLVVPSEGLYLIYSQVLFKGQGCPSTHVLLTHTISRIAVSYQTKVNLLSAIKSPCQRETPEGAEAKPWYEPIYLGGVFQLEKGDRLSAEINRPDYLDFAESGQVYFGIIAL
T1 sequence (P01375 77-233 limits assumed): as above

In the case of `CC(=O)c1cc2c(o1)C(=O)c1ccccc1C2=O` [BBI608, napabucasin, reference compound], the “Average RLU” value with STAT3 (setting [3]) and in the assay with STAT3 (setting [6]) was 33 RLU in each case. The “Luminescence (replicate wells)” value in the assay on STAT3 (setting [3]) was 41 RLU and 28 RLU and 31 RLU; in the assay with STAT3 (setting [4]) it was 41 RLU and 33 RLU and 39 RLU; in the assay on STAT3 (setting [5]) it was 32 RLU and 25 RLU and 31 RLU; with STAT3 (setting [6]) it was 31 RLU and 26 RLU and 42 RLU. For the same molecule, the “Fold-Induction RLU/RLU of −IL6” value in the assay with STAT3 (setting [4]) and in the assay with STAT3 (setting [5]) was 0 in each case. In the assay on STAT3, the “effect on IL-6 induction of the STAT3 reporter” value was “Inhibition of IL-6”.
On to `Nc1ccn([C@@H]2O[C@H](CO)[C@@H](O)C2(F)F)c(=O)n1` [Gemcitabine], for which the Abs in the assay with PANC-1 cells (Gemcitabine Hydrochloride (Biovision #1759) 0.020 μM alone) is recorded as 1.631; in the assay with PANC-1 cells (Gemcitabine Hydrochloride (Biovision #1759) 0.039 μM alone) it was 1.550; in the assay with PANC-1 cells (Gemcitabine Hydrochloride (Biovision #1759) 0.313 μM alone), 1.084; with PANC-1 cells (Gemcitabine Hydrochloride (Biovision #1759) 0.625 μM alone) it was 1.001; in the assay with PANC-1 cells (Gemcitabine Hydrochloride (Biovision #1759) 5 μM alone), 0.654; in the assay on PANC-1 cells (Gemcitabine Hydrochloride (Biovision #1759) 10 μM alone), 0.576. In addition, testing at 0.02 µM in the assay on PANC-1 cells (Homo sapiens, PANC-1) gave an inhibition of 0%. Moreover, at 0.039 µM the inhibition with PANC-1 cells (Homo sapiens, PANC-1) was 0%. In the assay on PANC-1 cells (Homo sapiens, PANC-1), the inhibition (usually the share of the control response that was lost under treatment) at 0.313 µM was found to be 5%. In the assay on PANC-1 cells (Homo sapiens, PANC-1), the inhibition at 0.625 µM came to 0%. The inhibition at 5 µM in the assay with PANC-1 cells (Homo sapiens, PANC-1) stood at 40%; in the assay on PANC-1 cells (setting [7]), 38%. For the same molecule, the inhibition at 10 µM was 48% in the assay on PANC-1 cells (Homo sapiens, PANC-1); 35% with PANC-1 cells (setting [7]); 48% in the assay on PANC-1 cells (Homo sapiens, PANC-1, 72 h, read-out: growth inhibition of PANC-1 cells).
For the molecule “Curirx P04: SBT-100 produced by Curirx, P04 buffer sample”, the “growth inhibition” value with SJSA-1 cells is listed as “significant growth inhibition”.
For “MPT B1 (pH 5.0): SBT-100 produced by Microprotein Technologies”, in the assay with MDA-MB-231 cells (MDA-MB-231, 50 μg/ml), the “MTT absorbance, single replicates” value was 0.924 and 0.741 and 0.834 and 0.749 and 0.771 and 0.77; the Mean amounted to 0.798. In addition, in the assay on MDA-MB-231 cells (MDA-MB-231, 100 μg/ml), the “MTT absorbance, single replicates” value was 0.65 and 0.656 and 0.624; the Mean amounted to 0.643.
Regarding “MPT His Tag: SBT-100 produced by Microprotein Technologies, His tag preparation”, the “inhibition compared with other SBT-100 preparations” value with MDA-MB-231 cells (MDA-MB-231) is listed as “greatest inhibition”. In the assay with MDA-MB-231 cells (MDA-MB-231, 50 μg/ml), the “MTT absorbance, single replicates” value is 0.095 and 0.091 and 0.102 and 0.1 and 0.087 and 0.092; the Mean amounted to 0.0945. Moreover, in the assay with MDA-MB-231 cells (MDA-MB-231, 100 μg/ml), the “MTT absorbance, single replicates” value is 0.74 and 0.8 and 0.82; the Mean is 0.079.

B1: anti-STAT3 VHH14: second anti-STAT3 sdAb, SEQ ID NO:4 (protein)
VHH: QVQLVESGGGSVQAGGSLRLSCVASTYTGCMGWFRQAPGKEREGVAALSSRGFAGHYTDSVKGRFSISRDYVKNAVYLQMNTVKPEDAAMYYCAAREGWECGETWLDRTAGGHTYWGQGTLVTVSS
modifications: Camelid
Turning to B1, the “effect on IL-6 induction of the STAT3 reporter” value in the assay with STAT3 was “enhancement of the IL-6 induction”.

B2: anti-TNF-α VHH62: anti-TNF-α sdAb, SEQ ID NO:47 (protein)
VHH: QVQLVESGGGPVQAGETLRLSCTASGFTFAEADMGWYRQAPGHECELVSTITTEGITSEASSYYADSVRGRFTISRDNAKNMVYLQMNSLKPEDTAVYYCAPDPYAYSTYSDYCSWAQGTQGTLVTVSS
modifications: Camelid
Regarding B2, in the assay with TNF-α, the “inhibition of TNF-α killing of U937” value was “inhibit killing of U937 by TNF-α”. In addition, the “detection in coated versus non-coated wells” value in assay [1] (0.5 μg/mL coating antigen, sdAb at 1 μg/mL) was “not detected in either coated or non-coated wells”. For the same molecule, the “detection in TNF-α ELISA” value in assay [1] (Experiment 1, 1 μg/mL sdAb) is “little to no detection”. For the same molecule, the OD450 in assay [1] (Experiment 4, original and new receipt, dilutions starting at 1 μg/mL) was under 0.2 OD450. Further, the “OD450 Values” in assay [1] (Non-Coated wells (non-specific binding), sdAb 1 μg/mL) is −0.001; in assay [2] (His-probe (H-3)), 0.196; in assay [2] (Rabbit anti-Llama Secondary Antibody) it was 2.341.
